Results published in patent US11771703B2, “Targeted epigenetic therapy against distal regulatory element of TGFβ2 expression” (The Johns Hopkins University, priority 2017, dated 2023).
Entries after “also recorded” stand apart in the source; their conditions may differ. Numbered stars: 1 amine (or outer) side, 2 acyl side, 3 side chain; on linkers, the order of the positions; unused ones are H or OH. Bridge positions count the residues as written; N and C are the ends. Square brackets hold non-standard residues; d marks the D form. Peptide text beside a SMILES is read from it. I, II: the chains in the order shown. Actinocin(9to1) = Cc1c2oc3c(C)ccc(C(=O)[*:1])c3nc-2c(C(=O)[*:2])c(N)c1=O; NMeV = CN[C@H](C(=O)O)C(C)C; Sar = CNCC(=O)O

Assays:
[1] = test system: TGFβ2 mRNA expression in SSc fibroblasts; experiment: TGFβ2 mRNA expression in primary dermal control and SSc fibroblasts, RT-qPCR; format: cell-based, human; conditions: for TGFβ2 mRNA expression in SSc fibroblasts after drug removal: 72 hours treatment, then drug removal; for TGFβ2 mRNA expression in SSc fibroblasts under treatment: SSc fibroblasts vs controls, serum-deprived, SGC-CBP30 72 hours, actinomycin D 12 hours; for TGFβ2 mRNA expression upon stimulation with cytokine/ligand: exogenous stimulation of fibroblasts
Method: (§1) To test this hypothesis, it was first validated whether primary dermal SSc fibroblast lines established from dermal biopsies maintained stable gene expression differences at baseline. Six dermal fibroblasts lines from SSc patients and five dermal fibroblast lines from healthy controls were cultured in serum-deprived conditions (DMEM+1% FCS) for 48 hours, followed by mRNA isolation. RNAseq analysis indicated significant transcriptomic differences (FDR<0.05) with heightened expression of extracellular matrix genes (P<1E-9) in SSc fibroblasts (FIG. 1A). By RT-qPCR, elevated expression of pro-fibrotic genes, such as COL1A1 and SERPINH1 (FIG. 1B), were independently validated. TGFβ expression, the dominant pro-fibrotic cytokine, was also assessed. […] This indicated transcriptional upregulation of TGFβ2 in SSc fibroblasts.
Since heightened TGFβ2 signaling drives collagen expression in SSc cells, the possible mechanisms of heightened TGFβ2 ligand expression in SSc fibroblasts, was investigated. First, it was determined if SSc fibroblasts were actively transcribing TGFβ2 mRNA by treating SSc or control fibroblasts with the transcriptional inhibitor actinomycin D for 12 hours, followed by mRNA isolation and RT-qPCR.
Second, it was determined if autocrine TGFβ2 signaling drives the steady-state differences in TGFβ2 mRNA expression in SSc fibroblasts. Cells were treated with isotype control or αTGFβ2ab in the presence or absence of saturating levels of exogenous TGFβ2 ligand (10 ng/mL), followed by mRNA isolation and RT-qPCR.
Third, pharmacological acetyltransferase inhibitors were used to support the role of enhancers in TGFβ2 expression and to identify therapeutic strategies for SSc. Bromodomain inhibitor SGC-CBP30 specifically suppresses the acetyltransferase activity of P300. […] This indicated some form of epigenetic memory that re-activates the TGFβ2 enhancer in SSc fibroblasts.

[2] = test system: collagen expression in SSc fibroblasts; experiment: Collagen / fibrotic synthetic repertoire (FSR) expression in SSc fibroblasts, RT-qPCR; format: cell-based, human
Method: as §1
This provided evidence that autocrine TGFβ2 signaling drives high collagen expression in SSc. To test this, the activity of ALK5, a TGFβ receptor kinase required by all TGFβ isoforms, was inhibited. ALK5 inhibition normalized collagen expression in SSc fibroblasts (FIG. 1E, P<0.05).

[3] = test system: TGFβ2 protein; experiment: TGFβ2 protein expression in SSc fibroblasts (western blot); format: cell-based, human
Method: FIG. 1A is a heatmap. Primary control and SSc fibroblasts were cultured ex vivo under serum deprived conditions (DMEM+1% FCS). Unsupervised hierarchical clustering was performed on genes with significant mRNA expression differences (FDR<0.05) assessed by RNA-seq on primary control and SSc fibroblasts. Top ranked GO term result for each gene cluster is indicated on the left of the heatmap. FIG. 1B are plots showing mRNA transcript levels measured by RT-qPCR. FIG. 1C: Transcript differences were correlated with protein expression by western blot under same culture conditions. FIG. 1D: Effects of TGFβ2 ligand stimulation on collagen expression was assessed in SSc fibroblasts. FIG. 1E: Effects of autocrine TGFβ2 signaling on mRNA expression of collagen was assessed through treatment of control and SSc fibroblasts with anti-TGFβ2 neutralizing antibody, followed by RT-qPCR. FIG. 1F: Effects of autocrine TGFβ2 stimulation on mRNA expression of TGFβ2 was assessed through treatment of control and SSc fibroblasts with combinations of anti-TGFBβ2 neutralizing antibody and exogenous TGFβ2 ligand ([…]). […]

[4] = test system: TGFB2 enhancer (Enhancer 4514); experiment: ChIP-qPCR occupancy (P300, BRD4, H3K27ac) at the TGFB2 enhancer; format: cell-based, human
Excerpt: (§2) The negative enantiomer of JQ1 was used as a negative control. […] In FIGS. 4G and 4H, BRD4 inhibition with JQ1 normalizes TGFβ2 protein and collagen mRNA expression in SSc fibroblasts. In FIGS. 4I, 4J and 4K, JQ1 treatment normalizes chromatin accessibility, H3K27ac and BRD4 occupancy at the TGFB2 enhancer in SSc fibroblasts. […] FIG. 4M: Heatmap of unsupervised hierarchical clustering of differentially expressed genes between vehicle or JQ1-treated control or SSc fibroblasts by RNA-seq (N=2). Rows represent differentially expressed genes between vehicle-treated control and SSc fibroblasts (FDR<0.05). Differences in expression of these genes are mitigated in SSc fibroblasts upon JQ1 treatment. […] Blue and red bars represent control and SSc fibroblasts, respectively. Ncontrol=5 and NSSc=6. Lower and upper margins of each bar indicate 25th and 75th percentiles, respectively; the internal line indicates the mean and whiskers indicate the range. Black points represent individual samples. All mRNA levels were normalized to GAPDH mRNA levels, respectively. All experiments other than RNA-seq and ATAC-qPCR were repeated at least twice with similar results.
Detecting activation status of TGFβ2 enhancer: To determine the activation status of the enhancer for TGFβ2 expression, chromatin immunoprecipitation was performed, followed by quantitative PCR (CHIP-qPCR), using primers that were uniquely designed based on ATAC-seq data for primary fibroblasts and published ENCODE data. The current method of detecting the activation status of TGFβ2 enhancer was implemented on primary human fibroblast cell lines established from dermal biopsies of normal controls or Scleroderma patients. However, the current method is applicable to adherent or non-adherent cells from tissue or blood of subjects (e.g., human patients).
To determine if Enhancer 4514 was biologically functional, a three-pronged approach was taken. First, active and functional enhancers are strongly associated with H3K27ac histone modifications with heightened occupancy of P300 (histone acetyltransferase) (Cato E et al. (2013) Cell Molecular Cell Reviews. 49:825-837). Thus, chromatin immunoprecipitation was used followed by qPCR (ChIP-qPCR) to determine the level of H3K27ac and P300 at Enhancer 4514 in SSc and control fibroblasts under baseline serum-deprived conditions. […] Furthermore, moderately higher levels of phosphorylated SMAD2 occupancy was found at enhancer 4514 in SSc.

[5] = test system: TGFB2 enhancer (Enhancer 4514); experiment: Chromatin accessibility at the TGFB2 enhancer (ATAC); format: cell-based, human; conditions: SSc fibroblasts under treatment
Excerpt: as §2
To test this hypothesis, an RNA-seq and Assay for Transposase-Accessible Chromatin Sequencing (ATAC-seq) were performed on three primary control fibroblast lines and three primary SSc fibroblast lines^7. […]

[6] = test system: SSc fibroblasts; experiment: RNA-seq transcriptome of vehicle or JQ1-treated control or SSc fibroblasts; format: cell-based, human
Excerpt: as §2, with “All experiments other than RNA-seq and ATAC-qPCR were repeated at least twice with similar results.” left out
To test this hypothesis, it was first validated whether primary dermal SSc fibroblast lines established from dermal biopsies maintained stable gene expression differences at baseline. […] TGFβ expression, the dominant pro-fibrotic cytokine, was also assessed. […]

[7] = test system: TGFB2 enhancer; conditions: Chem-seq database GSE44098, GSE43743; cited from earlier work
[8] = test system: TGFβ1 mRNA expression; experiment: TGFβ1 mRNA expression in fibroblasts, RT-qPCR; format: cell-based, human; conditions: fibroblasts under treatment
[9] = test system: TGFβ3 mRNA expression; experiment: TGFβ3 mRNA expression in fibroblasts, RT-qPCR; format: cell-based, human; conditions: fibroblasts under treatment
[10] = test system: Scleroderma cells; experiment: Cell toxicity of CBP/P300 inhibitor treatment
[11] = SSc fibroblasts under treatment
[12] = SSc fibroblasts, 72 hours treatment then removal

CC(C)(C)c1ccc(S(=O)(=O)/C=C/C#N)cc1 [BAY 11-7085]
TGFβ2 mRNA expression in SSc fibroblasts after drug removal [1]: sustained normalization
TGFβ2 mRNA expression in SSc fibroblasts after drug removal ([1]; listed as BAY 11-70585): sustained repression
TGFβ2 mRNA expression in SSc fibroblasts under treatment [1]: robustly suppressed
TNFα-induced TGFB2 mRNA expression under co-treatment ([1]; co-treatment with TNFα): prevents TGFB2 induction

Cc1sc2c(c1C)C(c1ccc(Cl)cc1)=N[C@@H](CC(=O)OC(C)(C)C)c1nnc(C)n1-2 [JQ1]
TGFβ2 mRNA expression in SSc fibroblasts after drug removal [1]: sustained repression; also recorded: sustained suppression; also recorded: maintained even after drug removal
TGFβ2 mRNA expression in SSc fibroblasts under treatment [1]: rapidly normalized; also recorded: decreased
TGFβ2 mRNA induction by exogenous TGFβ2 ligand under co-treatment ([1]; co-stimulation with TGFβ2 ligand (10 ng/mL)): failed to induce TGFβ2 mRNA expression
TGFβ2 mRNA expression in SSc fibroblasts after a single 48 hr regiment ([1]; single 48 hr regiment): permanently normalizes
fibrotic synthetic repertoire (FSR) in SSc cells ([2]; e.g. COL1A1, SERPINH1): normalization
collagen expression in SSc fibroblasts ([2]; mRNA, RT-qPCR): rapidly normalized; also recorded: normalizes
TGFβ2 protein levels in SSc fibroblasts [3]: rapidly normalized; also recorded: normalizes
BRD4 occupancy at the TGFB2 enhancer [4, 11]: complete normalization; also recorded: normalizes
H3K27ac at the TGFB2 enhancer [4, 11]: complete normalization; also recorded: normalizes
BRD4 occupancy at the TGFB2 enhancer after drug removal [4, 12]: continued normalization; also recorded: sustained normalization
H3K27ac at the TGFB2 enhancer after drug removal [4, 12]: continued normalization; also recorded: sustained normalization
P300 occupancy at the TGFB2 enhancer after drug removal [4, 12]: continued normalization; also recorded: sustained normalization
chromatin accessibility at the TGFB2 enhancer [5]: complete normalization; also recorded: normalizes
transcriptomic differences between control and SSc fibroblasts (RNA-seq) ([6]; N=2): significantly mitigated transcriptomic differences
clustering in principal component analysis of RNA-seq ([6]; PC1, 67% of total variance): cluster together with control samples in PC1; also recorded: cluster with control fibroblasts
binding at the TGFB2 enhancer (Chem-seq) [7]: specifically bound to the TGFB2 enhancer; also recorded: specific binding

COc1ccc(CCc2nc3cc(-c4c(C)noc4C)ccc3n2C[C@H](C)N2CCOCC2)cc1Cl [SGC-CBP30]
TGFβ2 mRNA expression in SSc fibroblasts after drug removal [1]: rebounded to steady-state levels
TGFβ2 mRNA expression in SSc fibroblasts under treatment [1]: normalized TGFβ2 expression in SSc fibroblasts to levels comparable to that of controls; also recorded: suppressed; also recorded: decrease TGFβ2 expression in Scleroderma cells to levels comparable to that of control
TGFβ2 mRNA expression in SSc fibroblasts under treatment ([1]; listed as SGC-CBP300): specifically decrease
TGFβ2 mRNA level in SSc cells compared to control after drug removal ([1]; after 72 hours of treatment and drug removal): 3 fold
P300 occupancy of the TGFB2 enhancer under treatment ([4]; SSc fibroblasts, 72 hours): suppressed
P300 occupancy at the TGFB2 enhancer after drug removal [4, 12]: re-establish high P300 occupancy; also recorded: rebounded to steady-state levels
TGFβ1 mRNA expression [8]: not TGFβ1 or TGFβ3
TGFβ3 mRNA expression [9]: not TGFβ1 or TGFβ3
cell toxicity [10]: minimal cell toxicity

Cc1c2oc3c(C)ccc(C(=O)N[C@@H]4C(=O)N[C@H](C(C)C)C(=O)N5CCC[C@H]5C(=O)N(C)CC(=O)N(C)[C@@H](C(C)C)C(=O)O[C@@H]4C)c3nc-2c(C(=O)N[C@@H]2C(=O)N[C@H](C(C)C)C(=O)N3CCC[C@H]3C(=O)N(C)CC(=O)N(C)[C@@H](C(C)C)C(=O)O[C@@H]2C)c(N)c1=O [actinomycin D] (I: T[dV]P[Sar][NMeV] / II: T[dV]P[Sar][NMeV]; ester I:1-I:C, II:1-II:C; linker I:N-II:N via Actinocin(9to1))
TGFβ2 mRNA expression in SSc fibroblasts under treatment [1]: completely normalized
TGFβ1 mRNA expression [8]: did not significantly alter
TGFβ3 mRNA expression [9]: did not significantly alter

TNFα
TGFβ2 mRNA expression upon stimulation with cytokine/ligand [1]: increased TGFβ2 expression; also recorded: induces TGFB2 mRNA expression

B1: TGFβ2 ligand: exogenous TGFβ2 ligand (10 ng/mL) (protein, UniProt P61812 303-414, looked up)
Transforming growth factor …: ALDAAYCFRNVQDNCCLRPLYIDFKRDLGWKWIHEPKGYNANFCAGACPYLWSSDTQHSRVLSLYNTINPEASASPCCVSQDLEPLTILYYIGKTPKIEQLSNMIVKSCKCS
TGFβ2 mRNA expression upon stimulation with cytokine/ligand [1]: pronounced further increase in TGFβ2 mRNA
